The source of these data is patent publication US20190224189A1 (priority 2016, published 2019).

One test deals with EGFR WT (Homo sapiens, UniProt P00533). The following applies: wild type EGFR and exon 20 insertion mutants, summary of Table 1.
Test [1] deals with non-small cell lung cancer with insertion mutation in exon 20. The following applies: cited from earlier work.
Test [2] has as its system stage IV lung adenocarcinoma carrying Exon 20 ins. The following applies: cited from earlier work.

EGFR WT, sequence (P00533 668-1210 limits assumed): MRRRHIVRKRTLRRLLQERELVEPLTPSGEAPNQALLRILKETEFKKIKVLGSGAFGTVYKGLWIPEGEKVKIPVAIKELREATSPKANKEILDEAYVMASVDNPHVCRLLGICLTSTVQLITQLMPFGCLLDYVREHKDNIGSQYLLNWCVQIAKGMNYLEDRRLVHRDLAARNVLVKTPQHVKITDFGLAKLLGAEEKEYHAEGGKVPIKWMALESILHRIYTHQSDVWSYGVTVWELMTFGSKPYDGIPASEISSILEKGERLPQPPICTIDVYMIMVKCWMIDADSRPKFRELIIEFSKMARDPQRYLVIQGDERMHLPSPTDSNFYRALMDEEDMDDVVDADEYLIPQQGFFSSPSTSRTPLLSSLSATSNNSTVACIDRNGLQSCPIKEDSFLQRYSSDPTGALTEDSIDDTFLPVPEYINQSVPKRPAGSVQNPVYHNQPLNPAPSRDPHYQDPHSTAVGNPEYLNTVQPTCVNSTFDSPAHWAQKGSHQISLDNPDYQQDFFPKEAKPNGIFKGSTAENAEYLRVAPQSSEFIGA

For `CCOc1cc2ncc(C#N)c(Nc3ccc(OCc4ccccn4)c(Cl)c3)c2cc1NC(=O)/C=C/[C@H]1CCCN1C` [Compound A, (E)-N-[4-[[3-chloro-4-(2-pyridylmethoxy)phenyl]amino]-3-cyano-7-ethoxy-6-quinolyl]-3-[(2R)-1-methylpyrrolidin-2-yl]prop-2-enamide], at EGFR WT, the “inhibitory effect on the enzymatic activity of recombinant human wild type EGFR and the mutated type with inserted mutation in exon 20 (in words)” value was “strong inhibitory effect”.
For `CN(C)C/C=C/C(=O)Nc1cc2c(Nc3ccc(F)c(Cl)c3)ncnc2cc1O[C@H]1CCOC1` [SHR141219 (BIBW-2992)], the “ORR evaluated through IRC” value in test [1] (23 patients with Exon 20 ins, 95% CI: 1.1%-28%) was 8.7%. In addition, the “median PFS” value in test [1] (patients with Exon 20 ins, 95% CI: 1.8-4.2 months) was 2.7 months. Moreover, the “median OS” value in test [1] (patients with Exon 20 ins, 95% CI: 4.1-14.2 months) is listed as 9.2 months.
On to `C#Cc1cccc(Nc2ncnc3cc(OCCOC)c(OCCOC)cc23)c1` [erlotinib], for which the “partial remission (PR) rate” value in test [2] (3 of the 11 patients with Exon 20 ins) is reported as 27%. Besides, the “median TTP” value in test [2] (patients with Exon 20 ins who received erlotinib) is recorded as 3 months.
